Assay results as given in BindingDB's records for doi:10.1021/np900435d (University of Florence, 2009).

Experiment: Inhibition of rat intestinal maltase

| Compound | IC50 |
| --- | --- |
| O[C@H]1[C@H](O)[C@@H](O)CN2C[C@@H](O)[C@@H](O)[C@H]12 [(-)-uniflorine A] | 12 µM |
| O[C@H]1[C@H]2[C@H](O)[C@H](O)CN2[C@H](O)C[C@H]1O [uniflorine B] | 4 µM |
